Assay [1] relates to FMN^1-212 (RNA, riboswitch) GGGAAAAAUAAAUAUUAAAAAUAAUCUUCGGGGCAGGGUGAAAUUCCCGACCGGUGGUAUAGUCCACGAAAGUAUUUGCUUUGAUUUGGUGAAAUUCCAAAACCGACAGUAGAGUCUGGAUGAGAGAAGAAAAGAAAUUUAAGUUUUUUAACUUGUUUUCUACAUUUUAGUAAUCUUACCCGAAUUCUAUAAUUCGGUUUUUUUAUUUUAACUGGCCCCCAAAAAAAAAAAAAAAAAAAAAAAA
Put plainly: fluorescence anisotropy switching (FASST), APO probe. The settings on record: 150 mM NaCl, 5 mM MgCl2, 350 nM RNA, 5 nM APO-FAM-FMN DNA probe displaced.

Assay [2] concerns FMN^AD (FMN aptamer domain) (RNA, riboswitch) GGGAUCUUCGGGGCAGGGUGAAAUUCCCGACCGGUGGUAUAGUCCACGAAAGUAUUUGCUUUGAUUUGGUGAAAUUCCAAAACCGACAGUAGAGUCUGGAUGAGAGAAGACCCCCAAAAAAAAAAAAAAAAAAAAAAAA
Put plainly: SPR kinetics. The settings on record: 150 mM NaCl, MgCl2; HBS-N, 10 mM HEPES pH 7.4; apparent.

The test system of assay [3] is FMN^1-212 (RNA, riboswitch) GGGAAAAAUAAAUAUUAAAAAUAAUCUUCGGGGCAGGGUGAAAUUCCCGACCGGUGGUAUAGUCCACGAAAGUAUUUGCUUUGAUUUGGUGAAAUUCCAAAACCGACAGUAGAGUCUGGAUGAGAGAAGAAAAGAAAUUUAAGUUUUUUAACUUGUUUUCUACAUUUUAGUAAUCUUACCCGAAUUCUAUAAUUCGGUUUUUUUAUUUUAACUGGCCCCCAAAAAAAAAAAAAAAAAAAAAAAA
In words: SPR. The settings on record: 150 mM NaCl, 5 mM MgCl2; HBS-N, 10 mM HEPES pH 7.4; apparent; Table 2 prints 150 ± 180 nM.

Assay [4] has the same test system. In words: SPR steady state. The settings on record: 150 mM NaCl, 5 mM MgCl2; HBS-N, 10 mM HEPES pH 7.4; apparent.
Assay [5] deals with FMN^AD (FMN aptamer domain) (RNA, riboswitch) GGGAUCUUCGGGGCAGGGUGAAAUUCCCGACCGGUGGUAUAGUCCACGAAAGUAUUUGCUUUGAUUUGGUGAAAUUCCAAAACCGACAGUAGAGUCUGGAUGAGAGAAGACCCCCAAAAAAAAAAAAAAAAAAAAAAAA
Put plainly: SPR steady state. The settings on record: 150 mM NaCl, MgCl2; HBS-N, 10 mM HEPES pH 7.4.

Assay [6] concerns SAM-I^1-156 (RNA, riboswitch) GGGAUAUCCGUUCUUAUCAAGAGAAGCAGAGGGACUGGCCCGACGAAGCUUCAGCAACCGGUGUAAUGGCGAUCAGCCAUGACCAAGGUGCUAAAUCCAGCAAGCUCGAACAGCUUGGAAGAUAAGAAGAGACAAAAUCACUGACAAAGUCUUCUUCUUCCCCCAAAAAAAAAAAAAAAAAAAAAAAA
In words: native PAGE switching with HOLO-FAM-SAM probe. The settings on record: MgCl2; THEM buffer pH 7.5; HOLO-FAM-SAM DNA probe hybridizes.

Assay [7] deals with SAM-I riboswitch without spacer and poly(A) tail (RNA, riboswitch) GGGAUAUCCGUUCUUAUCAAGAGAAGCAGAGGGACUGGCCCGACGAAGCUUCAGCAACCGGUGUAAUGGCGAUCAGCCAUGACCAAGGUGCUAAAUCCAGCAAGCUCGAACAGCUUGGAAGAUAAGAAGAGACAAAAUCACUGACAAAGUCUUCUUCUU
Put plainly: fluorescence anisotropy switching (FASST), APO probe. The settings on record: 150 mM NaCl, 2 mM MgCl2; 10 mM HEPES pH 7.4; APO-FAM-SAM DNA probe displaced. (In fluorescence polarisation assays a small probe gives low polarisation when free and higher when bound to something large.)

Assay [8] deals with SAM-I^1-156 (RNA, riboswitch) GGGAUAUCCGUUCUUAUCAAGAGAAGCAGAGGGACUGGCCCGACGAAGCUUCAGCAACCGGUGUAAUGGCGAUCAGCCAUGACCAAGGUGCUAAAUCCAGCAAGCUCGAACAGCUUGGAAGAUAAGAAGAGACAAAAUCACUGACAAAGUCUUCUUCUUCCCCCAAAAAAAAAAAAAAAAAAAAAAAA
Described as above. The settings on record: 150 mM NaCl, 2 mM MgCl2; 10 mM HEPES pH 7.4, 37 °C; 75 nM RNA; 50 nM APO-FAM-SAM DNA probe displaced.

Assay [9] concerns SAM-I riboswitch without spacer and poly(A) tail (RNA, riboswitch) GGGAUAUCCGUUCUUAUCAAGAGAAGCAGAGGGACUGGCCCGACGAAGCUUCAGCAACCGGUGUAAUGGCGAUCAGCCAUGACCAAGGUGCUAAAUCCAGCAAGCUCGAACAGCUUGGAAGAUAAGAAGAGACAAAAUCACUGACAAAGUCUUCUUCUU
In words: fluorescence anisotropy switching (FASST), HOLO probe. The settings on record: 150 mM NaCl, 2 mM MgCl2; 10 mM HEPES pH 7.4; HOLO-FAM-SAM DNA probe hybridizes.

In assay [10] the test system is SAM-I^1-156 (RNA, riboswitch) GGGAUAUCCGUUCUUAUCAAGAGAAGCAGAGGGACUGGCCCGACGAAGCUUCAGCAACCGGUGUAAUGGCGAUCAGCCAUGACCAAGGUGCUAAAUCCAGCAAGCUCGAACAGCUUGGAAGAUAAGAAGAGACAAAAUCACUGACAAAGUCUUCUUCUUCCCCCAAAAAAAAAAAAAAAAAAAAAAAA
In words: native PAGE switching with APO-FAM-SAM probe. The settings on record: MgCl2; THEM buffer pH 7.5; APO-FAM-SAM DNA probe displaced.

Assay [11] has the same test system. In words: native PAGE switching, no probe. The settings on record: MgCl2; THEM buffer pH 7.5; 0.5 μM RNA; top band; bottom band 23 ± 9 μM.
The test system is the same in assay [12]. Put plainly: SPR kinetics. The settings on record: 150 mM NaCl, MgCl2; HBS-N, 10 mM HEPES pH 7.4; apparent. Background: SPR reads the build-up and loss of mass on a sensor chip optically.
Assay [13] shares this test system. In words: fluorescence anisotropy switching (FASST), HOLO probe. The settings on record: 150 mM NaCl, 2 mM MgCl2; 10 mM HEPES pH 7.4, 37 °C; 350 nM RNA; 50 nM HOLO-FAM-SAM DNA probe hybridizes.
The subject of assay [14] is SAM-I^AD (yitJ SAM-I aptamer domain) (RNA, riboswitch) GGGCGUUCUUAUCAAGAGAAGCAGAGGGACUGGCCCGACGAAGCUUCAGCAACCGGUGUAAUGGCGAUCAGCCAUGACCAAGGUGCUAAAUCCAGCAAGCUCGAACAGCUUGGAAGAUAAGAAGCCCCCAAAAAAAAAAAAAAAAAAAAAAAA
In words: ITC. The settings on record: 150 mM NaCl, 2 mM MgCl2; 10 mM HEPES pH 7.4, 25 °C; 10 μM RNA.

Assay [15] has the same test system. In words: SPR kinetics. The settings on record: 150 mM NaCl, MgCl2; HBS-N, 10 mM HEPES pH 7.4; apparent.
Assay [16] has as its system SAM-I^1-156 (RNA, riboswitch) GGGAUAUCCGUUCUUAUCAAGAGAAGCAGAGGGACUGGCCCGACGAAGCUUCAGCAACCGGUGUAAUGGCGAUCAGCCAUGACCAAGGUGCUAAAUCCAGCAAGCUCGAACAGCUUGGAAGAUAAGAAGAGACAAAAUCACUGACAAAGUCUUCUUCUUCCCCCAAAAAAAAAAAAAAAAAAAAAAAA
Put plainly: SPR steady state. The settings on record: 150 mM NaCl, 2 mM MgCl2, HBS-N, 10 mM HEPES pH 7.4, apparent, no switching seen by FASST.

Assay [17] concerns SAM-I^AD (yitJ SAM-I aptamer domain) (RNA, riboswitch) GGGCGUUCUUAUCAAGAGAAGCAGAGGGACUGGCCCGACGAAGCUUCAGCAACCGGUGUAAUGGCGAUCAGCCAUGACCAAGGUGCUAAAUCCAGCAAGCUCGAACAGCUUGGAAGAUAAGAAGCCCCCAAAAAAAAAAAAAAAAAAAAAAAA
Put plainly: SPR steady state. The settings on record: 150 mM NaCl, MgCl2; HBS-N, 10 mM HEPES pH 7.4.

As for `Cc1cc2nc3c(=O)[nH]c(=O)nc-3n(C[C@H](O)[C@H](O)[C@H](O)COP(=O)(O)O)c2cc1C`, in [1] (10 mM HEPES pH 7.4, 37 °C), the S50FASST stood at 0.29 ± 0.06 µM. Besides, the values for the KD in assay [2] and in [3] were 160 ± 12 nM and 95 ± 50 nM, respectively.

On to `Cc1cc2nc3c(=O)[nH]c(=O)nc-3n(C[C@H](O)[C@H](O)[C@H](O)CO)c2cc1N(C)C`, for which the KD came to 4.9 ± 0.2 µM in assay [4] and 2 ± 1 µM in assay [5]. The compound further displayed an S50FASST in assay [1] (10 mM HEPES pH 7.4, overnight) of 24 ± 20 µM.

In the case of `C[S+](CC[C@H](N)C(=O)O)C[C@H]1O[C@@H](n2cnc3c(N)ncnc32)[C@H](O)[C@@H]1O` (some centres unmarked), the “S50 NP” value in assay [6] was 1.03 ± 0.08 µM; in assay [10], 46 ± 44 µM; in [11] it was 6 ± 2 µM. Also, the S50FASST amounted to 8 ± 3 µM in assay [7], 19 ± 12 µM in [8], 0.19 ± 0.08 µM in assay [9] and 1.7 ± 0.4 µM in assay [13]. Besides, the KD was found to be 10.1 ± 0.4 nM in assay [12], 128 ± 27 nM in assay [14] and 4 ± 2 nM in assay [15].

For the compound `Nc1ncnc2c1ncn2[C@@H]1O[C@H](CSCC[C@H](N)C(=O)O)[C@@H](O)[C@H]1O`, the values for the KD in assay [16] and in [17] were 46 ± 27 µM and 195 ± 22 µM, respectively.

As for `Nc1ncnc2c1ncn2[C@@H]1O[C@H](C[C@@H](N)CC[C@H](N)C(=O)O)[C@@H](O)[C@H]1O`, the KD in [16] (error exceeds value) is 2000 ± 3000 µM; in assay [17], 129 ± 14 µM.

With `Cc1cc2nc3c(=O)[nH]c(=O)nc-3n(C[C@H](O)[C@H](O)[C@H](O)CO)c2cc1C`, the figures for the KD in assay [4] and in assay [5] were 32 ± 11 µM and 30 ± 18 µM, respectively. In [1] (10 mM HEPES pH 7.4, overnight), this compound gave an S50FASST of 0.7 ± 0.3 µM.

(Values after paper PMC11014391 (2024).)
